From patent US10653698B2, “Methods of improving myocardial performance in Fontan patients using udenafil compositions” (priority 2014, dated 2020)

Test system: adolescents with single ventricle physiology after Fontan palliation
Assay: Echocardiographic assessment of ventricular performance (blood pool MPI, tissue Doppler MPI, average isovolumic contraction and relaxation)
Format: in vivo, human
Set-up: Average Isovolumic Contraction, Baseline measurement / Average Isovolumic Contraction, Follow-up measurement: unit not given here
Conditions: for Average Isovolumetric Relaxation, Follow-up measurement / Average Isovolumetric Relaxation, Baseline measurement: in ms (unit assumed)
From the text: Ventricular performance and cardiac contractility are important measurements that can reveal impairment of cardiovascular health before overt heart failure is present. Ventricular performance can be assessed using echocardiographic methods and quantified via a myocardial performance index or MPI. MPI is an index that combines systolic and diastolic function. Specifically, MPI is defined as the sum of isovolumic contraction time and isovolumic relaxation time divided by the ejection time.
Various versions of MPI are known in the art, and each version of MPI may be used to assess ventricular performance. For instance, MPI indices may include but are not limited to blood pool MPI, tissue doppler MPI, average isovolumetric contraction, and average isovolumetric relaxation.
The primary outcome of ventricular performance with assessed using echocardiographic methods and measured according to a myocardial performance Index (MPI). The MPI is a ventricular geometry-independent measure of combined systolic and diastolic ventricular performance (Charles S. Kleinman et al, 2008—Health and Fitness). It is obtained by indexing the sum of isovolumetric contraction and relaxation time to ejection time.
Table 18 summarizes results for the key outcome from the Echocardiographic Assessment of Ventricular Performance—Blood Pool MPI. Out of the 30 subjects enrolled in the treatment arms of the trial, 27 subjects had paired measurements. The structure of the table is similar to the one for exercise variables.
Tables 19-21 and FIGS. 9-15 report similar results for three other versions of MPI: Tissue Doppler MPI, and Average Isovolumetric Contraction and Relaxation.

For `CCCOc1ccc(S(=O)(=O)NCCC2CCCN2C)cc1-c1nc2c(CCC)nn(C)c2c(=O)[nH]1` (stereo not shown) [udenafil], the “Average Isovolumetric Relaxation, Difference, FU − BL” value (37.5 mg daily, N 5) was 9.0 ± 11.5, the “Average Isovolumic Contraction, Difference, FU − BL” value (37.5 mg daily, N 5) was −3.5 ± 50.0 and the “Average Isovolumic Contraction, Follow-up measurement” value (37.5 mg daily, N 5) was 86.4 ± 22.7. For the same compound, the “Blood Pool MPI, Difference, FU − BL” value (37.5 mg daily, N 5) was −0.052 ± 0.166, the “Blood Pool MPI, Follow-up measurement” value (37.5 mg daily, N 5) was 0.504 ± 0.187 and the “Tissue Doppler MPI, Difference, FU − BL” value (37.5 mg daily, N 5) was −0.052 ± 0.398. The “Tissue Doppler MPI, Follow-up measurement” value (37.5 mg daily, N 5) was 0.637 ± 0.206, the “Average Isovolumetric Relaxation, Follow-up measurement” value (37.5 mg daily, N 5) was 94.0 ± 26.7 and the “Average Isovolumic Contraction, Baseline measurement” value (37.5 mg daily, N 6) was 99.2 ± 50.7. The “Blood Pool MPI, Baseline measurement” value (37.5 mg daily, N 6) was 0.537 ± 0.304, the “Tissue Doppler MPI, Baseline measurement” value (37.5 mg daily, N 6) was 0.701 ± 0.417 and the “Average Isovolumetric Relaxation, Baseline measurement” value (37.5 mg daily, N 6) was 83.8 ± 16.1. The “Average Isovolumetric Relaxation, Difference, FU − BL” value (37.5 mg twice daily, N 6) was 0.8 ± 21.2, the “Average Isovolumic Contraction, Baseline measurement” value (37.5 mg twice daily, N 6) was 109.4 ± 51.1 and the “Average Isovolumic Contraction, Difference, FU − BL” value (37.5 mg twice daily, N 6) was −5.8 ± 25.7. For the same compound, the “Average Isovolumic Contraction, Follow-up measurement” value (37.5 mg twice daily, N 6) was 103.6 ± 32.4, the “Blood Pool MPI, Baseline measurement” value (37.5 mg twice daily, N 6) was 0.496 ± 0.150 and the “Blood Pool MPI, Difference, FU − BL” value (37.5 mg twice daily, N 6) was −0.003 ± 0.102. The “Blood Pool MPI, Follow-up measurement” value (37.5 mg twice daily, N 6) was 0.494 ± 0.087, the “Tissue Doppler MPI, Baseline measurement” value (37.5 mg twice daily, N 6) was 0.818 ± 0.361 and the “Tissue Doppler MPI, Difference, FU − BL” value (37.5 mg twice daily, N 6) was −0.089 ± 0.142. The “Tissue Doppler MPI, Follow-up measurement” value (37.5 mg twice daily, N 6) was 0.729 ± 0.230, the “Average Isovolumetric Relaxation, Baseline measurement” value (37.5 mg twice daily, N 6) was 100.8 ± 32.3 and the “Average Isovolumetric Relaxation, Follow-up measurement” value (37.5 mg twice daily, N 6) was 101.6 ± 40.0. The “Average Isovolumetric Relaxation, Difference, FU − BL” value (87.5 mg daily, N 6) was −6.9 ± 10.1, the “Average Isovolumic Contraction, Baseline measurement” value (87.5 mg daily, N 6) was 122.4 ± 36.7 and the “Average Isovolumic Contraction, Difference, FU − BL” value (87.5 mg daily, N 6) was −7.4 ± 26.5. For the same compound, the “Average Isovolumic Contraction, Follow-up measurement” value (87.5 mg daily, N 6) was 115.0 ± 32.9, the “Blood Pool MPI, Baseline measurement” value (87.5 mg daily, N 6) was 0.588 ± 0.158 and the “Blood Pool MPI, Difference, FU − BL” value (87.5 mg daily, N 6) was −0.076 ± 0.144. For the same compound, the “Blood Pool MPI, Follow-up measurement” value (87.5 mg daily, N 6) was 0.512 ± 0.163, the “Tissue Doppler MPI, Baseline measurement” value (87.5 mg daily, N 6) was 0.804 ± 0.118 and the “Tissue Doppler MPI, Difference, FU − BL” value (87.5 mg daily, N 6) was −0.089 ± 0.131. For the same compound, the “Tissue Doppler MPI, Follow-up measurement” value (87.5 mg daily, N 6) was 0.716 ± 0.142, the “Average Isovolumetric Relaxation, Baseline measurement” value (87.5 mg daily, N 6) was 93.4 ± 11.0 and the “Average Isovolumetric Relaxation, Follow-up measurement” value (87.5 mg daily, N 6) was 86.4 ± 15.3. The “Average Isovolumetric Relaxation, Difference, FU − BL” value (87.5 mg twice daily, N 4) was 5.2 ± 12.6, the “Average Isovolumic Contraction, Baseline measurement” value (87.5 mg twice daily, N 4) was 84.1 ± 20.3 and the “Average Isovolumic Contraction, Difference, FU − BL” value (87.5 mg twice daily, N 4) was 4.1 ± 12.1. The “Tissue Doppler MPI, Baseline measurement” value (87.5 mg twice daily, N 4) was 0.540 ± 0.019, the “Tissue Doppler MPI, Difference, FU − BL” value (87.5 mg twice daily, N 4) was 0.060 ± 0.068 and the “Average Isovolumetric Relaxation, Baseline measurement” value (87.5 mg twice daily, N 4) was 72.3 ± 10.5. For the same compound, the “Blood Pool MPI, Baseline measurement” value (87.5 mg twice daily, N 5) was 0.548 ± 0.136, the “Blood Pool MPI, Difference, FU − BL” value (87.5 mg twice daily, N 5) was −0.118 ± 0.090 and the “Average Isovolumic Contraction, Follow-up measurement” value (87.5 mg twice daily, N 6) was 83.8 ± 26.4. The “Blood Pool MPI, Follow-up measurement” value (87.5 mg twice daily, N 6) was 0.410 ± 0.078, the “Tissue Doppler MPI, Follow-up measurement” value (87.5 mg twice daily, N 6) was 0.638 ± 0.168 and the “Average Isovolumetric Relaxation, Follow-up measurement” value (87.5 mg twice daily, N 6) was 82.4 ± 11.4. The “Average Isovolumetric Relaxation, Difference, FU − BL” value (125 mg daily, N 5) was −5.4 ± 11.1, the “Average Isovolumic Contraction, Difference, FU − BL” value (125 mg daily, N 5) was −8.0 ± 24.6 and the “Average Isovolumic Contraction, Follow-up measurement” value (125 mg daily, N 5) was 150.5 ± 60.5. The “Blood Pool MPI, Difference, FU − BL” value (125 mg daily, N 5) was −0.054 ± 0.180, the “Blood Pool MPI, Follow-up measurement” value (125 mg daily, N 5) was 0.696 ± 0.202 and the “Tissue Doppler MPI, Difference, FU − BL” value (125 mg daily, N 5) was −0.074 ± 0.141. The “Tissue Doppler MPI, Follow-up measurement” value (125 mg daily, N 5) was 0.822 ± 0.271, the “Average Isovolumetric Relaxation, Follow-up measurement” value (125 mg daily, N 5) was 96.8 ± 17.4 and the “Average Isovolumic Contraction, Baseline measurement” value (125 mg daily, N 6) was 152.4 ± 64.4. The “Blood Pool MPI, Baseline measurement” value (125 mg daily, N 6) was 0.728 ± 0.155, the “Tissue Doppler MPI, Baseline measurement” value (125 mg daily, N 6) was 0.861 ± 0.323 and the “Average Isovolumetric Relaxation, Baseline measurement” value (125 mg daily, N 6) was 99.5 ± 25.0. For the same compound, the “Average Isovolumetric Relaxation, Difference, FU − BL” value (All subjects, N 26) was 0.1 ± 14.4, the “Average Isovolumic Contraction, Difference, FU − BL” value (All subjects, N 26) was −4.6 ± 28.3 and the “Tissue Doppler MPI, Difference, FU − BL” value (All subjects, N 26) was −0.056 ± 0.198. For the same compound, the “Blood Pool MPI, Difference, FU − BL” value (All subjects, N 27) was −0.059 ± 0.134, the “Average Isovolumic Contraction, Baseline measurement” value (All subjects, N 28) was 115.6 ± 50.5 and the “Average Isovolumic Contraction, Follow-up measurement” value (All subjects, N 28) was 107.1 ± 41.3. The “Blood Pool MPI, Follow-up measurement” value (All subjects, N 28) was 0.517 ± 0.165, the “Tissue Doppler MPI, Baseline measurement” value (All subjects, N 28) was 0.760 ± 0.299 and the “Tissue Doppler MPI, Follow-up measurement” value (All subjects, N 28) was 0.707 ± 0.201. For the same compound, the “Average Isovolumetric Relaxation, Baseline measurement” value (All subjects, N 28) was 91.2 ± 22.2, the “Average Isovolumetric Relaxation, Follow-up measurement” value (All subjects, N 28) was 92.0 ± 23.8 and the “Blood Pool MPI, Baseline measurement” value (All subjects, N 29) was 0.581 ± 0.197. The “Improvement in Blood Pool MPI” value (some patients, baseline to day 5) was at most 21.5%.
